Assay results published in the supplement of paper PMC10011410.
± gives the standard deviation of the averaged measurements.

Key:
[1] = test system: U-2 OS; assay: total intracellular glutathione (GSH + GSSG) relative to DMSO (% of control); higher = more glutathione; conditions: 24 h
Protocol: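 Total intracellular glutathione (GSH + GSSG) in U-2 OS cells by GSH/GSSG-Glo after 24 h compound treatment at 5, 10 and 20 uM (some at 40 and 80 uM), as percent of DMSO control. Five technical replicate plates, averaged.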

[2] = test system: U-2 OS; assay: relative cell count vs DMSO (cell painting) (fraction of DMSO control); higher = more cells remaining (less cytotoxic); conditions: 24 h
Outline: (§1)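 Cell painting used U-2 OS cells at about 1,500 per well in 384-well plates, treated by pin tool for 24 h at 37 °C, usually at six 2-fold concentrations from 20 μM to 625 nM. Cells were stained with MitoTracker, concanavalin A, phalloidin, wheat germ agglutinin, Hoechst and SYTO 14 and imaged on an Opera Phenix. Features were extracted with CellProfiler and normalized to DMSO cells on the same plate. The activity score is the Mahalanobis distance from DMSO wells; cell count is relative to DMSO wells. Values are means of four replicate plates.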

[3] = test system: U-2 OS; assay: cell painting activity score (Mahalanobis distance from DMSO wells); higher = stronger morphological phenotype; conditions: 24 h
Outline: as §1

[4] = test system: U-2 OS; assay: cell viability (CellTiter-Glo) relative to DMSO (% of control); higher = more viable; conditions: 24 h
Protocol: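 Cell viability of U-2 OS cells by CellTiter-Glo after 24 h compound treatment at 5, 10 and 20 uM (some at 40 and 80 uM), measured in parallel with the glutathione assay, as percent of DMSO control. Five technical replicate plates, averaged.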

[5] = test system: U-2 OS; assay: AUC of culture confluence over time (live-cell imaging) (AUC (confluence % x time)); higher = more confluent culture (less growth inhibition)
Outline: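 Confluence of U-2 OS cells in F-12K medium with 10% FBS was tracked by live-cell imaging. Cells were seeded at 750 per well in 384-well plates and treated 24 h later by pin tool, with most compounds at 20, 10 and 5 μM and 0.2% DMSO. Cells were kept at 37 °C and imaged every 4 h for up to 60 h on an Incucyte S3 with a 10x objective. The value is the area under the confluence-versus-time curve.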

[6] = test system: U-2 OS; assay: intracellular GSH:GSSG ratio (calculated); higher = more reduced glutathione pool; conditions: 24 h
Protocol: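 Intracellular glutathione in U-2 OS cells after 24 h compound treatment at 5, 10 and 20 uM (some at 40 and 80 uM). Total glutathione and GSSG were measured with the GSH/GSSG-Glo kit, and the GSH:GSSG ratio was calculated. Mean of five technical replicate plates.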

SMILES | total intracellular glutathione ([1]; 5 µM) | total intracellular glutathione ([1]; 10 µM) | total intracellular glutathione ([1]; 20 µM) | relative cell count ([2]; 0.625 µM) | relative cell count ([2]; 1.25 µM) | relative cell count ([2]; 2.5 µM) | relative cell count ([2]; 5 µM) | relative cell count ([2]; 10 µM) | relative cell count ([2]; 20 µM) | cell painting activity score ([3]; 0.625 µM) | cell painting activity score ([3]; 1.25 µM) | cell painting activity score ([3]; 2.5 µM) | cell painting activity score ([3]; 5 µM) | cell painting activity score ([3]; 10 µM) | cell painting activity score ([3]; 20 µM) | cell viability ([4]; 5 µM) | cell viability ([4]; 10 µM) | cell viability ([4]; 20 µM) | AUC of culture confluence over time ([5]; 5 µM) | AUC of culture confluence over time ([5]; 10 µM) | AUC of culture confluence over time ([5]; 20 µM) | intracellular GSH:GSSG ratio ([6]; 5 µM) | intracellular GSH:GSSG ratio ([6]; 10 µM) | intracellular GSH:GSSG ratio ([6]; 20 µM) | total intracellular glutathione ([1]; 40 µM) | total intracellular glutathione ([1]; 80 µM) | relative cell count ([2]; 40 µM) | relative cell count ([2]; 80 µM) | cell painting activity score ([3]; 40 µM) | cell painting activity score ([3]; 80 µM) | cell viability ([4]; 40 µM) | cell viability ([4]; 80 µM) | AUC of culture confluence over time ([5]; 40 µM) | AUC of culture confluence over time ([5]; 80 µM) | intracellular GSH:GSSG ratio ([6]; 40 µM) | intracellular GSH:GSSG ratio ([6]; 80 µM)
C[C@H]1CCC/C=C/[C@@H]2C[C@H](O)C[C@H]2[C@H](O)/C=C/C(=O)O1 | 54 ± 2.2 | 41.5 ± 18 | 45.2 ± 18 | 0.653 | 0.645 | 0.645 | 0.629 | 0.562 | 0.479 | 15.2 | 14.7 | 15.3 | 15.9 | 15.9 | 17.6 | 62.9 ± 3.7 | 64.5 ± 1.9 | 63.8 ± 3.9 | 18.6 | 18.1 | 18.2 | 26.9 | 17.4 | 16.1 | – | – | – | – | – | – | – | – | – | – | – | –
CNC(=O)Nc1ccc2c(c1)CC[C@@]21OC(=O)N(CC(=O)N(Cc2ccc(F)cc2)[C@@H](C)C(F)(F)F)C1=O | 81.7 ± 3.5 | 74.9 ± 6.2 | 79 ± 7.5 | 1.04 | 0.976 | 1.04 | 1.02 | 1.05 | 1 | 8.32 | 8.2 | 8.22 | 8.54 | 9.44 | 10.2 | 93.1 ± 1.9 | 83.6 ± 4.3 | 85.3 ± 5 | 44.7 | 44 | 42.6 | 27.9 | 31.4 | 30.9 | – | – | – | – | – | – | – | – | – | – | – | –
O=C(O[C@@H]1Cc2c(O)cc(O)cc2O[C@@H]1c1cc(O)c(O)c(O)c1)c1cc(O)c(O)c(O)c1 | 96 ± 2.7 | 102 ± 5.6 | 63.7 ± 3.8 | 0.966 | 1 | 0.981 | 0.96 | 0.989 | 0.897 | 3.76 | 4.88 | 4.25 | 4.82 | 5.68 | 10.4 | 98.8 ± 3.2 | 97.6 ± 4.7 | 69.1 ± 19 | 48.7 | 49.6 | 48.6 | 24.8 | 18.8 | 11.4 | 77.8 ± 5.7 | 53.9 ± 4.4 | 0.843 | 0.466 | 4.51 | 14.8 | 83 ± 14 | 43.2 ± 2.7 | 41.4 | 28.3 | 14 | 12
CC1(C)CCC2=C(O1)c1ccccc1C(=O)C2=O | 71.8 ± 4.9 | 56.2 ± 3.8 | 6.31 ± 1.1 | 1.05 | 0.993 | 1.08 | 0.933 | 0.767 | 0.227 | 3.9 | 4.86 | 5.01 | 5.34 | 9.42 | 18.4 | 79.8 ± 7.4 | 57 ± 15 | 17 ± 33 | 27 | 19.8 | 20.1 | 15.5 | 11.1 | 3.75 | – | – | – | – | – | – | – | – | – | – | – | –
CNC(=O)Nc1ccc2c(c1)[C@@]1(CC2)OC(=O)N(CC(=O)N(Cc2ccc(F)cc2)[C@@H](C)C(F)(F)F)C1=O | 100 ± 8.6 | 122 ± 7.3 | 90.4 ± 4 | 0.989 | 1.01 | 0.976 | 1.01 | 0.982 | 0.969 | 4.88 | 6.13 | 4.26 | 5.02 | 5.83 | 4.92 | 105 ± 7.5 | 98.6 ± 12 | 103 ± 9.4 | 45.6 | 49.6 | 44.7 | 20.4 | 29.9 | 16.2 | – | – | – | – | – | – | – | – | – | – | – | –
Cn1nnnc1SC1=CS(=O)(=O)c2ccccc21 | 59.4 ± 4.2 | 85.3 ± 12 | 23.3 ± 3.9 | 0.936 | 0.834 | 0.727 | 0.392 | 0.322 | 0.255 | 5.5 | 8.76 | 12 | 21.3 | 13.8 | 21.5 | 54.9 ± 6.7 | 65.2 ± 7.2 | 6.9 ± 1.4 | 19.6 | 16 | 12.1 | 3.69 | 2.11 | 0.199 | – | – | – | – | – | – | – | – | – | – | – | –
COC(=O)[C@]1(C)CC[C@]2(C)CC[C@]3(C)C4=CC=C5C(=CC(=O)C(O)=C5C)[C@]4(C)CC[C@@]3(C)[C@@H]2C1 | 9.07 ± 0.87 | 4.42 ± 1.3 | 3.06 ± 0.32 | 0.0681 | 0.0621 | 0.0626 | 0.0644 | 0.0539 | 0.117 | 24.2 | 33.5 | 32.8 | 33.4 | 33.5 | 27.7 | 5.12 ± 0.81 | 1.29 ± 0.58 | 0.733 ± 0.056 | 11.3 | 11.9 | 14.2 | 0.695 | 0.536 | – | – | – | – | – | – | – | – | – | – | – | – | –
